In ChEMBL document CHEMBL1201862, “PubChem BioAssay data set” (2004):
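Following 48 hours of exposure in 96-well plates, responses at five concentrations were used to interpolate endpoints linearly. The concentration for 50% growth inhibition is given as GI50.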 Calls of active or inactive are those of the source. Rule as the data show it: active = GI50 up to about 1.1 µM and inactive = higher.

Key:
Test in all cases: DTP human tumour cell line panel, 48 h
COLO 205 = system: COLO 205
IGROV-1 = system: IGROV-1
PC-3 = system: PC-3
NCI/ADR-RES = system: NCI/ADR-RES
RXF 393 = system: RXF 393
OVCAR-3 = system: OVCAR-3
MDA-N = system: MDA-N
KM12 = system: KM12
CCRF-CEM = system: CCRF-CEM
OVCAR-8 = system: OVCAR-8
U-251 = system: U-251
SK-MEL-2 = system: SK-MEL-2
ACHN = system: ACHN
UACC-62 = system: UACC-62
SF-268 = system: SF-268
Hs-578T = system: Hs-578T
SR = system: SR
MCF7 = system: MCF7
T47D = system: T47D
NCI-H460 = system: NCI-H460
SW-620 = system: SW-620
K562 = system: K562
HCT-116 = system: HCT-116
786-0 = system: 786-0
SK-MEL-5 = system: SK-MEL-5
CAKI-1 = system: CAKI-1
MDA-MB-435 = system: MDA-MB-435
UO-31 = system: UO-31
SNB-19 = system: SNB-19
TK-10 = system: TK-10
SK-MEL-28 = system: SK-MEL-28
HOP-62 = system: HOP-62
A498 = system: A498
EKVX = system: EKVX
OVCAR-5 = system: OVCAR-5
RPMI-8226 = system: RPMI-8226
DU-145 = system: DU-145
HT-29 = system: HT-29
SN12C = system: SN12C
HL-60 = system: HL-60
SF-295 = system: SF-295
M14 = system: M14
UACC-257 = system: UACC-257
MOLT-4 = system: MOLT-4
NCI-H23 = system: NCI-H23
SNB-75 = system: SNB-75
HCT-15 = system: HCT-15
MDA-MB-231 = system: MDA-MB-231
A549 = system: A549
NCI-H226 = system: NCI-H226
SF-539 = system: SF-539
BT-549 = system: BT-549

Measured: GI50

NNc1nncc2[nH]cnc12
> 100 µM: HCT-15
inactive: COLO 205 > 100 µM | IGROV-1 > 100 µM | PC-3 > 100 µM | NCI/ADR-RES > 100 µM | RXF 393 > 100 µM | OVCAR-3 > 100 µM | MDA-N > 100 µM | KM12 > 100 µM | CCRF-CEM > 100 µM | OVCAR-8 > 100 µM | U-251 > 100 µM | SK-MEL-2 > 100 µM | ACHN > 100 µM | UACC-62 > 100 µM | SF-268 > 100 µM | Hs-578T > 100 µM | SR > 100 µM | MCF7 > 100 µM | T47D > 100 µM | NCI-H460 > 100 µM | SW-620 > 100 µM | K562 > 100 µM | HCT-116 > 100 µM | 786-0 > 100 µM | SK-MEL-5 > 100 µM | CAKI-1 > 100 µM | MDA-MB-435 > 100 µM | UO-31 > 100 µM | SNB-19 > 100 µM | TK-10 > 100 µM | SK-MEL-28 > 100 µM | HOP-62 > 100 µM | A498 > 100 µM | EKVX > 100 µM | OVCAR-5 > 100 µM | RPMI-8226 > 100 µM | DU-145 > 100 µM | HT-29 > 100 µM | SN12C > 100 µM | HL-60 35.8 µM | SF-295 > 100 µM | M14 > 100 µM | UACC-257 > 100 µM | MOLT-4 > 100 µM | NCI-H23 > 100 µM | SNB-75 > 100 µM | MDA-MB-231 > 100 µM | A549 > 100 µM | NCI-H226 > 100 µM | SF-539 > 100 µM | BT-549 > 100 µM
